Assay results: ChEMBL document CHEMBL6092216, “Development of α-Helical Antimicrobial Peptides with Imperfect Amphipathicity for Superior Activity and Selectivity” (J Med Chem, 2024)
Activity calls are given as the source filed them. No cut-off for these calls is given here. Where a SMILES comes first, the peptide text is derived from it. [ ]: non-standard residue; d: D form. Hmpa(2S,3S) = CC[C@H](C)[C@H](O)C(=O)O

Experiments:
[1] = system: Acinetobacter baumannii; assay: Antibacterial activity against Acinetobacter baumannii ATCC 19606 assessed as inhibition of bacterial growth by tube microdilution assay; assay type: functional
[2] = system: Staphylococcus aureus; assay: Antibacterial activity against Staphylococcus aureus ATCC 6538 assessed as inhibition of bacterial growth by tube microdilution assay; assay type: functional
[3] = system: HEK-293T; assay: Cytotoxicity against HEK293T cells assessed as effect on cell viability at 3.13 to 400 ug/ml incubated for 24 hrs by CCK-8 assay; assay type: toxicity, cell-based; details: human, dose 3.13-400 µg/ml
[4] = system: Erythrocyte; assay: Induction of hemolysis in mouse red blood cells at 1.56 to 100 ug/ml incubated for 1 hr; assay type: toxicity, cell-based; details: dose 1.56-100 µg/ml
[5] = system: HaCaT; assay: Cytotoxicity against human HaCaT cells assessed as effect on cell viability at 3.13 to 400 ug/ml incubated for 24 hrs by CCK-8 assay; assay type: toxicity, cell-based; details: dose 3.13-400 µg/ml
[6] = system: Staphylococcus aureus; assay: Induction of bacterial cell rupture in Staphylococcus aureus ATCC 6538 assessed as cell disruption at 5XMIC measured after 30 mins by transmission electron microscopy; assay type: functional, organism-based
[7] = system: Cell membrane; assay: Induction of membrane permeabilization in Staphylococcus aureus ATCC 6538 assessed as increase in fluorescence intensity at 5XMIC measured for 90 mins by propidium iodide staining based fluorescence analysis; assay type: subcellular
[8] = system: Staphylococcus aureus; assay: Ratio of MIC for bactericidal activity against Staphylococcus aureus ATCC 6538 measured after 35 passages to MIC for bactericidal activity against Staphylococcus aureus ATCC 6538 measured after short period of drug exposure; assay type: functional
[9] = system: Staphylococcus aureus; assay: Antibacterial activity against Staphylococcus aureus ATCC 6538 infected in BALB/c mouse assessed as inhibition of bacterial colonization on wounded skin at 0.5 mg/ml applied on skin and measured after 2 hrs; assay type: functional, organism-based
[10] = system: Staphylococcus aureus; assay: Bactericidal activity against Staphylococcus aureus ATCC 6538 assessed as elimination of bacterial cells at 5X to 10X MIC by killing kinetic assay; assay type: functional, organism-based
[11] = system: Staphylococcus aureus; assay: Induction of bacterial cell rupture in Staphylococcus aureus ATCC 6538 assessed as cell disruption at 5XMIC measured after 30 mins by scanning electron microscopy; assay type: functional, organism-based

Row | Compound | MIC [1] [µg/mL] | MIC [2] [µg/mL] | other results
1 | H-RGIKKFIKKVKKVKKAIK-OH | 2.34 | 2.34 | 
2 | H-FIKKVKKVKKAIKEGIKK-OH | 37.5 | 75 | 
3 | H-IKKFIKKVKKVKKAIKEG-OH | 37.5 | 75 | Activity [3]: Non-toxic; Activity [4]: Non-toxic; Activity [5]: Non-toxic
4 | H-KFIKKVKKVKKAIKEGIK-OH | 37.5 | 75 | 
5 | CC[C@H](C)[C@H](N)C(=O)N[C@@H](CCCCN)C(=O)N[C@@H](CCCCN)C(=O)NCC(=O)O[C@H](C(=O)N[C@@H](CCCCN)C(=O)N[C@@H](CCCCN)C(=O)N[C@@H](CC(C)C)C(=O)N[C@@H](CC(C)C)C(=O)O)[C@@H](C)CC (H-IKKG[Hmpa(2S,3S)]KKLL-OH) | > 200 | > 200 | Activity [3]: Non-toxic; Activity [4]: Non-toxic; Activity [5]: Non-toxic
6 | H-IKKFIKKVKKVKKAIK-OH | 4.68 | 4.68 | Activity [3]: Non-toxic; Activity [4]: Non-toxic; Activity [5]: Non-toxic
7 | H-RRGIKKFIKKVKKVKKAIKEGIKKGIKKLL-OH | 9.37 | 9.37 | 
8 | CC[C@H](C)[C@H](NC(=O)CN)C(=O)N[C@@H](CCCCN)C(=O)N[C@@H](CCCCN)C(=O)NCC(=O)O[C@H](C(=O)N[C@@H](CCCCN)C(=O)N[C@@H](CCCCN)C(=O)N[C@@H](CC(C)C)C(=O)N[C@@H](CC(C)C)C(=O)O)[C@@H](C)CC (H-GIKKG[Hmpa(2S,3S)]KKLL-OH) | > 200 | > 200 | 
9 | H-GIKKFIKKVKKVKKAIKE-OH | 37.5 | 75 | 
10 | H-SGGGSNIAHGPGGRRHIA-OH | > 200 | > 200 | 
11 | H-IKKVKKVKKAIKEGIKKG-OH | 75 | 75 | 
12 | CN[C@H](CC(C)C)C(=O)N[C@H]1C(=O)N[C@@H](CC(N)=O)C(=O)N[C@H]2C(=O)N[C@H]3C(=O)N[C@H](C(=O)N[C@H](C(=O)O)c4cc(O)cc(O)c4-c4cc3ccc4O)[C@H](O)c3ccc(c(Cl)c3)Oc3cc2cc(c3O[C@@H]2O[C@H](CO)[C@@H](O)[C@H](O)[C@H]2O[C@H]2C[C@](C)(N)[C@H](O)[C@H](C)O2)Oc2ccc(cc2Cl)[C@H]1O [VANCOMYCIN] |  |  | Activity [6]: Active; Limited Cell Disruption With Most Cells Remain Intact And Unaffected; Activity [7]: inactive; Ratio [8]: 4; Activity [9]: Active; Activity [10]: Active; Slow Killing Rate; Activity [11]: Active; Limited Cell Disruption With Most Cells Remain Intact And Unaffected
13 | H-KKFIKKVKKVKKAIKEGI-OH | 37.5 | 75 | 
